The text below walks through data of ChEMBL document CHEMBL6134788, “Development of naphthalimide hydrazide derivatives as potent antibacterial agents against carbapenem-resistant A. baumannii” (RSC Med Chem, 2024).

Data set [1] deals with Acinetobacter baumannii. The data set can be described thus: Synergistic antibacterial activity against carbapenem-resistant Acinetobacter baumannii BAA 1605 assessed as inhibition of bacterial growth incubated 24 hrs in presence of tobramycin by checkerboard method. Format: functional.
In data set [2] the test system is Acinetobacter baumannii. The data set can be described thus: Antibacterial activity against multi-drug resistant Acinetobacter baumannii WL-136 assessed as inhibition of bacterial growth incubated for 16 to 18 hrs by CLSI protocol based method. It is filed as functional. The note with it: time 16-18 hrs, read-out: MIC100.
Data set [3] relates to Acinetobacter baumannii. The data set can be described thus: Antibacterial activity against carbapenem-resistant Acinetobacter baumannii BAA 1605 assessed as minocycline MIC by measuring fractional inhibitory concentration incubated 24 hrs by checkerboard method relative to minocycline alone. It is filed as functional.
The test system of data set [4] is Acinetobacter baumannii. The data set can be described thus: Antibacterial activity against carbapenem-resistant Acinetobacter baumannii BAA 1605 assessed as inhibition of bacterial growth by measuring fractional inhibitory concentration incubated 24 hrs in presence of amikacin by checkerboard method. It is filed as functional.
Data set [5] deals with Acinetobacter baumannii. The data set can be described thus: Antibacterial activity against carbapenem-resistant Acinetobacter baumannii BAA 1605 assessed as inhibition of bacterial growth by measuring polymyxin B MIC incubated 24 hrs by checkerboard method. Format: functional.
Data set [6] concerns Acinetobacter baumannii. The data set can be described thus: Antibacterial activity against carbapenem-resistant Acinetobacter baumannii BAA 1605 assessed as inhibition of bacterial growth incubated 24 hrs in presence of levofloxacin by checkerboard method. It is filed as functional.
The subject of data set [7] is Acinetobacter baumannii. The data set can be described thus: Antibacterial activity against carbapenem-resistant Acinetobacter baumannii BAA 1605 assessed as inhibition of bacterial growth incubated 24 hrs in presence of amikacin by checkerboard method. It is filed as functional.
The test system of data set [8] is Acinetobacter baumannii. The data set can be described thus: Antibacterial activity against carbapenem-resistant Acinetobacter baumannii BAA 1605 assessed as tobramycin MIC by measuring fractional inhibitory concentration incubated 24 hrs by checkerboard method relative to tobramycin alone. It is filed as functional.
The subject of data set [9] is Acinetobacter baumannii. The data set can be described thus: Antibacterial activity against carbapenem-resistant Acinetobacter baumannii BAA 1605 assessed as reduction in bacterial growth incubated for 24 hrs by time-kill kinetics analysis. Format: functional, organism-based.
Data set [10] concerns Acinetobacter baumannii. The data set can be described thus: Antibacterial activity against carbapenem-resistant Acinetobacter baumannii BAA 1605 assessed as inhibition of bacterial growth incubated 24 hrs in presence of rifampicin by checkerboard method. It is filed as functional.
Data set [11] concerns Acinetobacter baumannii. The data set can be described thus: Antibacterial activity against carbapenem-resistant Acinetobacter baumannii BAA 1605 assessed as inhibition of bacterial growth by measuring fractional inhibitory concentration incubated 24 hrs in presence of minocycline by checkerboard method. Format: functional.
Data set [12] deals with Acinetobacter baumannii. The data set can be described thus: Antibacterial activity against carbapenem-resistant Acinetobacter baumannii BAA 1605 assessed as inhibition of bacterial growth by measuring fractional inhibitory concentration incubated 24 hrs in presence of levofloxacin by checkerboard method. It is filed as functional.
The test system of data set [13] is Acinetobacter baumannii. The data set can be described thus: Antibacterial activity against carbapenem-resistant Acinetobacter baumannii BAA 1605 assessed as inhibition of bacterial growth by measuring minocycline MIC incubated 24 hrs by checkerboard method. Format: functional.
For data set [14], the system named is Acinetobacter baumannii. The data set can be described thus: Antibacterial activity against multi-drug resistant Acinetobacter baumannii clinical isolate 4 assessed as inhibition of bacterial growth incubated for 16 to 18 hrs by CLSI protocol based method. To be noted: time 16-18 hrs, read-out: MIC100. Format: functional.
Data set [15] relates to Acinetobacter baumannii. The data set can be described thus: Antibacterial activity against carbapenem-resistant Acinetobacter baumannii BAA 1605 assessed as rifampicin MIC by measuring fractional inhibitory concentration incubated 24 hrs by checkerboard method relative to rifampicin alone. Format: functional.
The test system of a further data set is Staphylococcus aureus. The data set can be described thus: Antibacterial activity against Staphylococcus aureus ATCC 29213 assessed as inhibition of bacterial growth incubated for 16 to 18 hrs by CLSI protocol based method. It is filed as functional. To be noted: time 16-18 hrs, read-out: MIC100.
Data set [16] deals with Acinetobacter baumannii. The data set can be described thus: Antibacterial activity against multi-drug resistant Acinetobacter baumannii Naval-81 assessed as inhibition of bacterial growth incubated for 16 to 18 hrs by CLSI protocol based method. Format: functional. The note with it: time 16-18 hrs, read-out: MIC100.
The subject of data set [17] is Acinetobacter baumannii. The data set can be described thus: Antibacterial activity against carbapenem-resistant Acinetobacter baumannii BAA 1605 assessed as inhibition of bacterial growth by measuring fractional inhibitory concentration incubated 24 hrs in presence of polymyxin B by checkerboard method. Format: functional.
For data set [18], the system named is Acinetobacter baumannii. The data set can be described thus: Antibacterial activity against multi-drug resistant Acinetobacter baumannii clinical isolate 1 assessed as inhibition of bacterial growth incubated for 16 to 18 hrs by CLSI protocol based method. Format: functional. To be noted: time 16-18 hrs, read-out: MIC100.
In data set [19] the test system is Acinetobacter baumannii. The data set can be described thus: Antibacterial activity against multi-drug resistant Acinetobacter baumannii clinical isolate 11 assessed as inhibition of bacterial growth incubated for 16 to 18 hrs by CLSI protocol based method. Format: functional. To be noted: time 16-18 hrs, read-out: MIC100.
A short description of data set [20]: Cytotoxicity against African green monkey Vero cells assessed as reduction in cell viability incubated for 72 hrs by MTT assay. It is filed as toxicity, cell-based. The note with it: chlorocebus sabaeus.

The structures appear in SMILES notation. Values after ≈ are worked out from the molar mass of the structure shown. Active and inactive are the calls of the source. No cut-off for these calls is given here.

As to `O=C(CCN1C(=O)c2cccc3cccc(c23)C1=O)NNc1ccc(Br)cc1`, the MIC in the data set with Acinetobacter baumannii [1] stood at 0.25 mg/L; in the data set with Acinetobacter baumannii [2] it was 0.5 mg/L (≈ 1.14 µM); in the data set on Acinetobacter baumannii [5] it was 0.25 mg/L; in the data set on Acinetobacter baumannii [6] it was 1 mg/L; with Acinetobacter baumannii [7], 0.25 mg/L; in the data set with Acinetobacter baumannii [10], 0.5 mg/L. For the same compound, the MIC is 4 mg/L in the data set on Acinetobacter baumannii [13]; 0.5 mg/L (≈ 1.14 µM) with Acinetobacter baumannii [14]; above 64 mg/L with Staphylococcus aureus; 0.5 mg/L (≈ 1.14 µM) in the data set with Acinetobacter baumannii [16]; 0.25 mg/L (≈ 0.57 µM) with Acinetobacter baumannii [18]; 4 mg/L (≈ 9.13 µM) in the data set on Acinetobacter baumannii [19]. Also, the FIC is given as 1 in the data set with Acinetobacter baumannii [3]; 0.25 in the data set with Acinetobacter baumannii [4]; 0.25 with Acinetobacter baumannii [8]; 1 with Acinetobacter baumannii [11]; 1 in the data set with Acinetobacter baumannii [12]; 0.5 in the data set with Acinetobacter baumannii [15]. Also, the FIC with Acinetobacter baumannii [17] was found to be 0.25. In the data set on Acinetobacter baumannii [9], the outcome was inactive. Also, the CC50 at 72 h in data set [20] was above 100 mg/L.
